Measured values taken from ChEMBL document CHEMBL2434943, “Elaboration of thorough simplified vinca alkaloids as antimitotic agents based on pharmacophore similarity” (Eur J Med Chem, 2013).
Activity calls are given as the source filed them. The rule behind the calls is not given here.

What was measured:
[1] = system: HepG2; assay: Antimitotic activity in human HepG2 cells assessed as cell morphological changes at 5 uM after 3 to 12 hrs by DAPI staining-based laser scanning confocal microscopic analysis; format: functional
[2] = molecular target: Tubulin (Homo sapiens) (UniProt P68371+Q9H4B7+P0DPH7+P68366+Q13509+Q71U36+P04350+Q3ZCM7+P07437+P68363+Q9BQE3+Q6PEY2+Q13885+Q9BVA1+Q9BUF5); assay: Inhibition of tubulin polymerization (unknown origin) at 3 to 10 uM after 90 mins; format: protein-complex assay
[3] = system: HepG2; assay: Antimitotic activity in human HepG2 cells assessed as disruption of microtubule network at 5 uM by DAPI staining-based laser scanning confocal microscopic analysis; format: functional, cell-based; settings: TDE = time-dependent effect
[4] = system: MCF7; assay: Cell cycle arrest in human MCF7 cells assessed as accumulation at G2/M phase at 5 uM after 36 hrs by propidium iodide staining-based flow cytometric analysis (reference value: 19%); format: functional
[5] = system: MCF7; assay: Cell cycle arrest in human MCF7 cells assessed as accumulation at S phase at 5 uM after 36 hrs by propidium iodide staining-based flow cytometric analysis (reference value: 12.5%); format: functional
[6] = system: MCF7; assay: Cell cycle arrest in human MCF7 cells assessed as accumulation at G0/G1 phase at 5 uM after 36 hrs by propidium iodide staining-based flow cytometric analysis (reference value: 67.3%); format: functional
[7] = system: MCF7; assay: Cell cycle arrest in human MCF7 cells assessed as accumulation at subG1 phase at 5 uM after 36 hrs by propidium iodide staining-based flow cytometric analysis (reference value: 1.2%); format: functional
[8] = system: MCF7; assay: Cell cycle arrest in human MCF7 cells assessed as accumulation at G2/M phase at 3 uM after 36 hrs by propidium iodide staining-based flow cytometric analysis (reference value: 19%); format: functional
[9] = system: MCF7; assay: Cell cycle arrest in human MCF7 cells assessed as accumulation at S phase at 3 uM after 36 hrs by propidium iodide staining-based flow cytometric analysis (reference value: 12.5%); format: functional
[10] = system: MCF7; assay: Cell cycle arrest in human MCF7 cells assessed as accumulation at G0/G1 phase at 3 uM after 36 hrs by propidium iodide staining-based flow cytometric analysis (reference value: 67.3%); format: functional
[11] = system: MCF7; assay: Cell cycle arrest in human MCF7 cells assessed as accumulation at subG1 phase at 3 uM after 36 hrs by propidium iodide staining-based flow cytometric analysis (reference value: 1.2%); format: functional
[12] = system: MCF7; assay: Cell cycle arrest in human MCF7 cells assessed as accumulation at G2/M phase at 1 uM after 36 hrs by propidium iodide staining-based flow cytometric analysis (reference value: 19%); format: functional
[13] = system: MCF7; assay: Cell cycle arrest in human MCF7 cells assessed as accumulation at S phase at 1 uM after 36 hrs by propidium iodide staining-based flow cytometric analysis (reference value: 12.5%); format: functional
[14] = system: MCF7; assay: Cell cycle arrest in human MCF7 cells assessed as accumulation at G0/G1 phase at 1 uM after 36 hrs by propidium iodide staining-based flow cytometric analysis (reference value: 67.3%); format: functional
[15] = system: MCF7; assay: Cell cycle arrest in human MCF7 cells assessed as accumulation at subG1 phase at 1 uM after 36 hrs by propidium iodide staining-based flow cytometric analysis (reference value: 1.2%); format: functional
[16] = system: HepG2; assay: Cell cycle arrest in human HepG2 cells assessed as accumulation at G2/M phase at 10 uM after 48 hrs by propidium iodide staining-based flow cytometric analysis (reference value: 22.4%); format: functional
[17] = system: HepG2; assay: Cell cycle arrest in human HepG2 cells assessed as accumulation at S phase at 10 uM after 48 hrs by propidium iodide staining-based flow cytometric analysis (reference value: 10.5%); format: functional
[18] = system: HepG2; assay: Cell cycle arrest in human HepG2 cells assessed as accumulation at G0/G1 phase at 10 uM after 48 hrs by propidium iodide staining-based flow cytometric analysis (reference value: 65.9%); format: functional
[19] = system: HepG2; assay: Cell cycle arrest in human HepG2 cells assessed as accumulation at subG1 phase at 10 uM after 48 hrs by propidium iodide staining-based flow cytometric analysis (reference value: 1.2%); format: functional
[20] = system: HepG2; assay: Cell cycle arrest in human HepG2 cells assessed as accumulation at G2/M phase at 5 uM after 48 hrs by propidium iodide staining-based flow cytometric analysis (reference value: 22.4%); format: functional
[21] = system: HepG2; assay: Cell cycle arrest in human HepG2 cells assessed as accumulation at S phase at 5 uM after 48 hrs by propidium iodide staining-based flow cytometric analysis (reference value: 10.5%); format: functional
[22] = system: HepG2; assay: Cell cycle arrest in human HepG2 cells assessed as accumulation at G0/G1 phase at 5 uM after 48 hrs by propidium iodide staining-based flow cytometric analysis (reference value: 65.9%); format: functional
[23] = system: HepG2; assay: Cell cycle arrest in human HepG2 cells assessed as accumulation at subG1 phase at 5 uM after 48 hrs by propidium iodide staining-based flow cytometric analysis (reference value: 1.2%); format: functional
[24] = system: HepG2; assay: Cell cycle arrest in human HepG2 cells assessed as accumulation at G2/M phase at 3 uM after 48 hrs by propidium iodide staining-based flow cytometric analysis (reference value: 22.4%); format: functional
[25] = system: HepG2; assay: Cell cycle arrest in human HepG2 cells assessed as accumulation at S phase at 3 uM after 48 hrs by propidium iodide staining-based flow cytometric analysis (reference value: 10.5%); format: functional
[26] = system: HepG2; assay: Cell cycle arrest in human HepG2 cells assessed as accumulation at G0/G1 phase at 3 uM after 48 hrs by propidium iodide staining-based flow cytometric analysis (reference value: 65.9%); format: functional
[27] = system: HepG2; assay: Cell cycle arrest in human HepG2 cells assessed as accumulation at subG1 phase at 3 uM after 48 hrs by propidium iodide staining-based flow cytometric analysis (reference value: 1.2%); format: functional
[28] = Cytotoxicity against KM mouse splenic lymphocytes assessed as growth inhibition after 72 hrs by MTT assay; settings: Splenic lymphocyte
[29] = system: HepG2; assay: Cytotoxicity against adriamycin-resistant human HepG2 cells assessed as growth inhibition after 72 hrs by MTT assay; format: functional, cell-based; settings: HepG2, 72 h
[30] = system: HepG2; assay: Cytotoxicity against human HepG2 cells assessed as growth inhibition after 72 hrs by MTT assay; format: functional, cell-based; settings: HepG2, 72 h
[31] = system: K562; assay: Cytotoxicity against human K562 cells assessed as growth inhibition after 72 hrs by MTT assay; format: functional, cell-based; settings: K562, 72 h
[32] = system: MDA-MB-231; assay: Cytotoxicity against human MDA-MB-231 cells assessed as growth inhibition after 72 hrs by MTT assay; format: functional, cell-based; settings: MDA-MB-231, 72 h
[33] = system: MCF7; assay: Cytotoxicity against human MCF7 cells assessed as growth inhibition after 72 hrs by MTT assay; format: functional, cell-based; settings: MCF7, 72 h

## CC1(C)C(/C=C/c2cccc([N+](=O)[O-])c2)=Nc2ccccc21
[1]
  Activity: Active
[2]
  inhibition: Active
[3]
  Activity: tde
[4]
  Activity: 46.7%
[5]
  Activity: 12.3%
[6]
  Activity: 19.6%
[7]
  Activity: 21.4%
[8]
  Activity: 39.7%
[9]
  Activity: 10%
[10]
  Activity: 40.6%
[11]
  Activity: 9.7%
[12]
  Activity: 28%
[13]
  Activity: 14%
[14]
  Activity: 56.8%
[15]
  Activity: 1.2%
[16]
  Activity: 52.1%
[17]
  Activity: 8.6%
[18]
  Activity: 36.8%
[19]
  Activity: 2.5%
[20]
  Activity: 71.3%
[21]
  Activity: 9.9%
[22]
  Activity: 15.3%
[23]
  Activity: 3.5%
[24]
  Activity: 37.6%
[25]
  Activity: 8.2%
[26]
  Activity: 51.3%
[27]
  Activity: 2.9%
[28]
  IC50: 18.8 µM
[29]
  IC50: 2.27 µM
[30]
  IC50: 5.04 µM
[31]
  IC50: 4.38 µM
[32]
  IC50: 1.87 µM
[33]
  IC50: 0.89 µM
